{"source": "patent US6380165B1", "about": "“Immunological advanced glycation endproduct crosslink” (The Picower Institute for Medical Research, priority 1997, dated 2002)", "note": "Where a SMILES comes first, the peptide text is derived from it. The star is where a group is joined. Cbz = O=C(OCc1ccccc1)*", "data": [{"system": "polyclonal anti-AGE antibody “RU”", "test": "anti-AGE antibody-based competitive ELISA to measure AGE content (AGE-BSA as absorbed antigen)", "format": "binding, rabbit", "details": "FIG. 1", "excerpt": "For comparison purposes, the reactivity of FFI, CML, AFGP, pentosidine and cyclic pentosidine, and ligands with related epitope structure, such as N^α-Z-arg-lys, N^α-Z-arg-lys-AP, an imidazolium adduct, a pyrimidinium adduct, histidine, and lys-his, were studied. ELISA competition curves for the polyclonal anti-AGE antibody “RU” followed the methods described by Makita et al. (J. Biol. Chem. 267:1992, 1992). Assays employed glucose-derived, AGE-BSA as the absorbed antigen. FFI: 4-furanyl-2-furoyl-1H-imidazole (Ponger et al,. Proc. Natl. Acad Sci. U.S.A. 81:2684, 1984), CML: carboxy-methyllysine (Ahmed et al., J. Biol. Chem. 261:4889, 1986), AFGP: 1-alkyl-2-formyl-3,4-diglycosylpyrrole (Farmar et al., J. Org. Chem. 53:2346, 1988), PY: pyrraline (Njoroge et al., Carbohydrate Res. 167:211, 1987), P: pentosidine (Sell and Monnier, J. Biol. Chem. 264:21597, 1989), CP: cyclic pentosidine (CP) (Al-Abed et al., Bioorg. Med. Chem. Lett. 5:2929, 1995), AL: N^α-Z-arg-lys (AL), ALAP: N^α-Z-arg-lys-AP, H: histidine, LH: lys-his, PA: pyrimidinium adduct (Al-Abed et al., Bioorg. Med. Chem. Lett. 6:1577, 1996), and IA: imldazolium adduct (Brinkmann et al., J. Chem. Soc. Perkin Trans.\nThis example illustrates the discovery and isolation of the AGE of formula I. The dipeptide N^α-Z-arg-lys was selected as a target, because a close association of the arginine and lysine residues provides a significant proximity effect that promotes crosslink formation. Moreover, a synthetic strategy employing an arg-lys dipeptide was used successfully in the past to isolate a cyclic pentosidine in a high yield (Beisswenger et al., Diabetes 44:824, 1995). N^α-Z-arg-lys (13 mmoles) was incubated together with 10 equivalents of glucose in 0.2 M phosphate buffer (pH 7.4) for five weeks at 37° C. At least 25 distinct reaction products were identified upon fractionation of this mixture by reverse-phase HPLC. Each fraction was isolated, concentrated, and analyzed for its reactivity with anti-AGE antibody by ELISA (Makita et al., J. Biol Chem. 267:1992, 1992). Briefly, HPLC fractions and purified compounds were analyzed by an AGE-specific ELISA following methods described previously (Makita et al., J. Biol. Chem. 267:1992, 1992). This ELISA employed a polyclonal anti-AGE antibody raised by hyperimmunization against a heavily AGE-crosslinked preparation of ribonuclease. Total IgG was prepared by protein-G affinity chromatography and the ribonuclease backbone specificities removed by immunoabsorption. For assaying AGE immunoreactivity, 96-well round bottom microtitre plates (EIA/RIA plate, Costar, Cambridge, Mass.) first were coated with AGE-BSA (3 mg/ml, dissolved in 0.1 M sodium bicarbonate, pH 9.6) by incubation overnight at 4° C. After washing, the unbound sites were blocked with SuperBlock™ following the manufacturer's recommendations (Pierce, Rockford, Ill.). After washing, dilutions of test antigen, together with anti-AGE IgG, were added and the plates incubated at room temperature for 1 hr. The plates then were washed again and incubated with a secondary antibody (alkaline phosphatase-conjugated anti-rabbit IgG) at 37° C. for 1 hr. The unbound antibodies were removed by extensive washing and bound antibodies were detected by incubation with-nitrophenyl phosphate (pNPP) substrate for 30-60 min, and recording the optical density at 405 nm by an ELISA reader (EL309, Bio-Tek Instruments Inc., Burlington, Vt.). Results were expressed as B/B0, calculated as [experimental OD—background OD (i.e. no antibody)]/[total OD (i.e. no competitor)—background OD].", "values": [{"molecule": "1-alkyl-2-formyl-3,4-diglycosylpyrrole [AFGP]", "crossreactivity / reactivity with the RU anti-AGE antibody": "no detectable crossreactivity"}, {"molecule": "4-furanyl-2-furoyl-1H-imidazole [FFI]", "crossreactivity / reactivity with the RU anti-AGE antibody": "no detectable crossreactivity"}, {"molecule": "N=C(N)NCCC[C@H](NC(=O)OCc1ccccc1)C(=O)N[C@@H](CCCCN)C(=O)O", "note": "[AL, N^α-Z-arg-lys] (Cbz-Arg-Lys-OH)", "crossreactivity / reactivity with the RU anti-AGE antibody": "no detectable crossreactivity"}, {"molecule": "N[C@@H](Cc1c[nH]cn1)C(=O)O", "note": "[H, histidine]", "crossreactivity / reactivity with the RU anti-AGE antibody": "no detectable crossreactivity"}, {"molecule": "NCCCC[C@H](N)C(=O)N[C@@H](Cc1cnc[nH]1)C(=O)O", "note": "[LH, lys-his]", "crossreactivity / reactivity with the RU anti-AGE antibody": "no detectable crossreactivity"}, {"molecule": "N[C@@H](CCCCn1c(C=O)ccc1CO)C(=O)O", "note": "[PY, pyrraline]", "crossreactivity / reactivity with the RU anti-AGE antibody": "no detectable crossreactivity"}, {"molecule": "N^α-Z-arg-lys-AP [ALAP]", "crossreactivity / reactivity with the RU anti-AGE antibody": "no detectable crossreactivity"}, {"molecule": "cyclic pentosidine [CP]", "crossreactivity / reactivity with the RU anti-AGE antibody": "no detectable crossreactivity"}, {"molecule": "pentosidine", "crossreactivity / reactivity with the RU anti-AGE antibody": "no detectable crossreactivity"}]}, {"system": "not listed separately", "test": "acid lability of the isolated crosslink", "format": "physicochemical", "details": "not given", "values": [{"molecule": "O=C(NC1CCCNC2=NC(=CNCCCCC(C(=O)O)NC1=O)C(CC(O)CO)=N2)OCc1ccccc1", "note": "(stereo not drawn) [ALI, Arg-Lys-Imidazole]", "acid stability of the crosslink": "acid-labile"}]}, {"system": "AGE formation", "test": "formation of the ALI crosslink from glucose and Nα-Z-arg-lys, inhibition of forming", "details": "not given", "excerpt": "This example illustrates a proposed mechanism of the AGE formation (FIG. 2). First, dehydration of the lysine-derived AP (which has been determined to form in 18% yield under these reaction conditions) gives an obligate, AP-dione reactive intermediate. Reversible addition of the guanidine moiety to the dicarbonyl yields the 2-amino-4,5-dihydroxyimidazole adduct, which then undergoes dehydration to deliver the stable cyclic ALI.", "values": [{"molecule": "N=C(N)NN", "note": "[aminoguanidine]", "inhibition of crosslink (ALI) formation": "inhibited from forming"}]}]}
